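Grown in 96-well plates, cells were treated for 48 hours with each compound at five concentrations. Insufficient inhibition: endpoint recorded as highest concentration tested. GI50 = concentration required for 50% inhibition of growth. At the TGI there is no net growth.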
Assays:
Test in all cases: growth of human tumour cells (NCI), 48 h
[1] = test system: HOP-92 NSCLC
[2] = test system: M14 melanoma
[3] = test system: OVCAR-8 ovarian
[4] = test system: RXF 393 renal
[5] = test system: SNB-75 CNS
[6] = test system: UACC-62 melanoma
[7] = test system: ACHN renal
[8] = test system: KM12 colon
[9] = test system: MCF7 breast
[10] = test system: A498 renal

Cc1cc(C)c2c(c1)Nc1ccccc1P2c1ccccc1 (centres undefined)
TGI [1]: 58.9 µM
TGI [2]: > 100 µM
TGI [3]: > 100 µM
TGI [4]: > 100 µM
TGI [5]: 78.5 µM
TGI [6]: > 100 µM

O=c1c(Sc2c(O)c3ccccc3c3ccccc3c2=O)c(O)c2ccccc2c2ccccc12
TGI [7]: 78.5 µM
TGI [1]: > 100 µM
TGI [8]: > 100 µM
TGI [2]: > 100 µM
TGI [3]: > 100 µM
TGI [4]: > 100 µM
TGI [5]: > 100 µM
TGI [6]: > 100 µM

N#Cc1cccc(C(=O)Nc2cccc(NC(=O)c3cccc(C#N)c3)c2)c1
GI50 [7]: > 100 µM
TGI [7]: > 100 µM
GI50 [1]: 60.4 µM
TGI [1]: > 100 µM
GI50 [2]: > 100 µM
TGI [2]: > 100 µM
GI50 [9]: 90.9 µM
TGI [9]: > 100 µM
GI50 [3]: 47.3 µM
TGI [3]: > 100 µM
GI50 [5]: > 100 µM
TGI [5]: > 100 µM
GI50 [6]: 34.1 µM
TGI [6]: > 100 µM

CS(=O)(=O)OCCn1cnc2nc(NC(=O)c3ccccc3)[nH]c(=O)c21
TGI [10]: > 100 µM
TGI [7]: > 100 µM
TGI [1]: > 100 µM
TGI [8]: > 100 µM
TGI [2]: > 100 µM
TGI [3]: > 100 µM
TGI [4]: > 100 µM
TGI [5]: > 100 µM
TGI [6]: > 100 µM

COc1ccc(-c2cnnn2-c2cc(OC)c3c(c2)OCO3)cc1
GI50 [10]: 0.0444 µM
TGI [10]: 0.633 µM
GI50 [7]: 0.891 µM
TGI [7]: > 100 µM
GI50 [1]: 0.187 µM
TGI [1]: 24.8 µM
GI50 [8]: 0.0564 µM
TGI [8]: > 30.8 µM
GI50 [2]: 0.0537 µM
TGI [2]: > 100 µM
GI50 [9]: 0.0463 µM
TGI [9]: > 100 µM
GI50 [3]: 0.304 µM
TGI [3]: > 100 µM
GI50 [5]: 0.0741 µM
TGI [5]: > 100 µM
GI50 [6]: 0.235 µM
TGI [6]: > 100 µM

O=C1OC(CC(=O)c2ccc(Cl)cc2Cl)C(Cl)=C1Cl (centres undefined)
TGI [10]: > 100 µM
TGI [7]: > 56.9 µM
TGI [1]: 39.7 µM
TGI [8]: > 100 µM
TGI [2]: > 91.9 µM
TGI [3]: > 60.2 µM
TGI [4]: 36.3 µM
TGI [5]: > 61.1 µM
TGI [6]: 40 µM

N=c1c2c(-c3ccccc3)c(-c3ccccc3)n(Cc3ccccc3)c2ncn1CCCO
GI50 [10]: 3.3 µM
TGI [10]: 19.7 µM
GI50 [7]: 0.457 µM
TGI [7]: 14.3 µM
GI50 [8]: 1.01 µM
TGI [8]: 14.3 µM
GI50 [2]: 2 µM
TGI [2]: 6.54 µM
GI50 [9]: 0.472 µM
TGI [9]: 2.07 µM
GI50 [3]: 0.739 µM
TGI [3]: 22.2 µM
GI50 [4]: 0.443 µM
TGI [4]: 2.5 µM
GI50 [5]: 1.38 µM
TGI [5]: 8.43 µM
GI50 [6]: 1.91 µM
TGI [6]: 14.4 µM

Cc1ccc(NC(=O)c2cc3ccccc3c(N=Nc3ccccc3O)c2O)c(C)c1
TGI [7]: 16.4 µM
TGI [1]: 12.9 µM
TGI [8]: 14.8 µM
TGI [2]: 12.7 µM
TGI [9]: 13.7 µM
TGI [3]: 3.7 µM
TGI [4]: 19.4 µM
TGI [5]: 2.5 µM

CCOC(=O)C1=C(NNC(=O)Cc2ccccc2)CSC1=Nc1ccccc1
TGI [10]: > 100 µM
TGI [7]: > 100 µM
TGI [1]: > 100 µM
TGI [8]: > 100 µM
TGI [2]: > 100 µM
TGI [3]: > 100 µM
TGI [4]: > 100 µM
TGI [5]: > 100 µM
TGI [6]: > 100 µM

CCCCCCCCC(=O)N(C)C1C2CN3CCC(O2)C13 (centres undefined)
TGI [10]: > 100 µM
TGI [7]: > 100 µM
TGI [8]: > 100 µM
TGI [2]: > 100 µM
TGI [4]: > 100 µM
TGI [5]: > 100 µM
TGI [6]: > 100 µM

O=c1[nH]nc2ccccc2c1Cl
TGI [10]: 33.2 µM
TGI [7]: 30.8 µM
TGI [1]: 12.3 µM
TGI [8]: 26.6 µM
TGI [2]: 25.6 µM
TGI [3]: 54.3 µM
TGI [5]: 47.1 µM
TGI [6]: 25.6 µM

C=C1C(=O)OC2C1CC[C@H](C)C13OC(=O)CC1[C@@]23C (some centres undefined)
TGI [10]: > 100 µM
TGI [7]: > 100 µM
TGI [1]: > 100 µM
TGI [8]: > 100 µM
TGI [3]: > 100 µM
TGI [4]: > 100 µM
TGI [5]: > 100 µM
TGI [6]: > 100 µM

Cc1ccc2c(c1C)-c1c(ccc(C)c1C)C(=O)C2=O
TGI [10]: 4.35 µM
TGI [7]: 3.91 µM
TGI [1]: 5.02 µM
TGI [8]: 2.21 µM
TGI [2]: 2.12 µM
TGI [9]: 0.809 µM
TGI [3]: 0.905 µM
TGI [4]: 2.57 µM
TGI [6]: 1.68 µM

Nc1c(Br)c(=O)[nH]c(=O)n1COCCO
TGI [7]: > 100 µM
TGI [1]: > 100 µM
TGI [8]: > 100 µM
TGI [2]: > 100 µM
TGI [3]: > 100 µM
TGI [4]: > 100 µM
TGI [5]: > 100 µM
TGI [6]: > 100 µM

CCN(CCNc1ccc(C)c2sc3cc(Cl)ccc3c(=O)c12)CC(C)O (centres undefined)
GI50 [10]: 1.49 µM
TGI [10]: 2.87 µM
GI50 [7]: 1.85 µM
TGI [7]: 3.48 µM
GI50 [1]: 1.61 µM
TGI [1]: 4.28 µM
GI50 [8]: 1.84 µM
TGI [8]: 3.88 µM
GI50 [2]: 1.75 µM
TGI [2]: 3.14 µM
GI50 [9]: 1.5 µM
TGI [9]: 3.01 µM
GI50 [5]: 1.75 µM
TGI [5]: 3.57 µM
GI50 [6]: 1.82 µM
TGI [6]: 3.44 µM

CC(C)(O)C1CCC(Nc2ccc3ncc(-c4cccc(C(F)(F)F)c4)n3n2)CC1 (centres undefined)
GI50 [10]: 1.48 µM
TGI [10]: 4.49 µM
GI50 [7]: 2.12 µM
TGI [7]: 12.3 µM
GI50 [8]: 0.132 µM
TGI [8]: 11.7 µM
GI50 [2]: 1.23 µM
TGI [2]: 4.49 µM
GI50 [9]: 2.75 µM
TGI [9]: 12.5 µM
GI50 [3]: 2.97 µM
TGI [3]: 13.4 µM
GI50 [4]: 1.11 µM
TGI [4]: 2.81 µM
GI50 [5]: 1.77 µM
TGI [5]: 8.99 µM
GI50 [6]: 1.97 µM
TGI [6]: 8.83 µM

CCc1ccccc1N1CCN(C(=O)c2cc(OC)c(OC)c(OC)c2)CC1
TGI [10]: 0.985 µM
TGI [7]: 66.4 µM
TGI [1]: 12.3 µM
TGI [8]: 2.64 µM
TGI [2]: 2.6 µM
TGI [9]: 35 µM
TGI [3]: 13.6 µM
TGI [5]: > 100 µM
TGI [6]: > 68.8 µM

COc1ccc(C2=NN(C(=O)COc3ccc(Cl)cc3)C(O)(c3ccc(Cl)cc3)C2)cc1 (centres undefined)
TGI [7]: > 100 µM
TGI [1]: > 100 µM
TGI [8]: > 100 µM
TGI [2]: > 100 µM
TGI [3]: > 100 µM
TGI [5]: > 100 µM
TGI [6]: > 100 µM

NNC(=O)CCC(=O)Nc1cc(Cl)c(Cl)cc1Cl
TGI [10]: > 100 µM
TGI [7]: > 100 µM
TGI [1]: > 100 µM
TGI [8]: > 100 µM
TGI [2]: > 100 µM
TGI [3]: > 100 µM
TGI [4]: > 100 µM
TGI [5]: > 100 µM
TGI [6]: > 100 µM

NC(=NC1CCCCCCC1)c1ccc(N2CCN(c3ccc(C(N)=NC4CCCCCCC4)cc3)CC2)cc1
GI50 [7]: 22.7 µM
TGI [7]: > 100 µM
GI50 [1]: 25.1 µM
TGI [1]: 79.9 µM
GI50 [8]: 5.3 µM
TGI [8]: 19.1 µM
GI50 [2]: 30.8 µM
TGI [2]: > 100 µM
GI50 [9]: 5.77 µM
TGI [9]: > 100 µM
GI50 [3]: 4.9 µM
TGI [3]: 30 µM
GI50 [5]: 3.7 µM
TGI [5]: 15.7 µM
GI50 [6]: 12.6 µM
TGI [6]: 28.3 µM

— PubChem BioAssay (NCI)
